# From patent publication US5707989A, “Pyrimido[5,4-D]pyrimidines, medicaments comprising these compounds, their use and processes for their preparation” (Dr. Karl Thomae GmbH, priority 1994, dated 1998)
# pIC50: −log10 of the molar value.
# How the values were obtained:
# Format in all cases: cell-based
# [1] = test system: human tumour cell line KB; experiment: EGF/TGF-alpha-stimulated proliferation (thymidine incorporation) of KB cells; conditions: TGF-alpha 10 ng/ml or EGF 20 ng/ml, 60 hours, then [3H]-thymidine 16-18 hours, read-out: IC50 for inhibition of the EGF/TGF-alpha-stimulated KB cell proliferation
# Protocol: KB cells (obtained from ATCC) were passaged in DMEM (BioWhittaker) in the presence of 10% FCS (Boehringer Mannheim), 50 μM beta-mercaptoethanol and standard antibiotics. As an indicator of EGF/TGF-alpha-stimulated cell proliferation, the EGF-inducedDNA synthesis was determined by measurement of the incorporation of radioactively labelled thymidine. For this, the celels were washed twice and 1500 cells per well were plated out in a 96-well plate in 200 μl IMDM (BioWhittaker) without serum in the presence of 50 μM beta-mercaptoethanol, standard antibiotics, TGF-alpha [10 ng/ml] or EGF [20 ng/ml] and various concentrations of the substances according to the invention (triplicates, maximum DMSO concentration 1%, see proliferation test with F/L-HERc cells). After 60 hours, [^3 H]-thymidine (0.1 μCi in 10 μl) was added for about 16-18 hours. Subsequent measurement of the thymidine incorporation gave IC50 values of 0.1-1 μM for inhibition of the EGF/TGF-alpha-stimulated KB cell proliferation for compounds 2, 6, 17, 18, 19, 72, 83, 93, 95, 96 and 104 of Example 1.
# human EGF-R = molecular target: T1, human EGF-R (Homo sapiens, UniProt P00533); experiment: Inhibition of EGF-dependent proliferation of F/L-HERc cells; conditions: human EGF 20 ng/ml, 48 hours
# T1 construct: expressed in transfected cells; host or cells: F/L-HERc cells: murine IL-3-dependent line FDC-P1 infected with recombinant retrovirus (LXSN vector, GP+E86 packaging line) carrying human EGF-R cDNA
# T1 sequence (P00533 25-1210): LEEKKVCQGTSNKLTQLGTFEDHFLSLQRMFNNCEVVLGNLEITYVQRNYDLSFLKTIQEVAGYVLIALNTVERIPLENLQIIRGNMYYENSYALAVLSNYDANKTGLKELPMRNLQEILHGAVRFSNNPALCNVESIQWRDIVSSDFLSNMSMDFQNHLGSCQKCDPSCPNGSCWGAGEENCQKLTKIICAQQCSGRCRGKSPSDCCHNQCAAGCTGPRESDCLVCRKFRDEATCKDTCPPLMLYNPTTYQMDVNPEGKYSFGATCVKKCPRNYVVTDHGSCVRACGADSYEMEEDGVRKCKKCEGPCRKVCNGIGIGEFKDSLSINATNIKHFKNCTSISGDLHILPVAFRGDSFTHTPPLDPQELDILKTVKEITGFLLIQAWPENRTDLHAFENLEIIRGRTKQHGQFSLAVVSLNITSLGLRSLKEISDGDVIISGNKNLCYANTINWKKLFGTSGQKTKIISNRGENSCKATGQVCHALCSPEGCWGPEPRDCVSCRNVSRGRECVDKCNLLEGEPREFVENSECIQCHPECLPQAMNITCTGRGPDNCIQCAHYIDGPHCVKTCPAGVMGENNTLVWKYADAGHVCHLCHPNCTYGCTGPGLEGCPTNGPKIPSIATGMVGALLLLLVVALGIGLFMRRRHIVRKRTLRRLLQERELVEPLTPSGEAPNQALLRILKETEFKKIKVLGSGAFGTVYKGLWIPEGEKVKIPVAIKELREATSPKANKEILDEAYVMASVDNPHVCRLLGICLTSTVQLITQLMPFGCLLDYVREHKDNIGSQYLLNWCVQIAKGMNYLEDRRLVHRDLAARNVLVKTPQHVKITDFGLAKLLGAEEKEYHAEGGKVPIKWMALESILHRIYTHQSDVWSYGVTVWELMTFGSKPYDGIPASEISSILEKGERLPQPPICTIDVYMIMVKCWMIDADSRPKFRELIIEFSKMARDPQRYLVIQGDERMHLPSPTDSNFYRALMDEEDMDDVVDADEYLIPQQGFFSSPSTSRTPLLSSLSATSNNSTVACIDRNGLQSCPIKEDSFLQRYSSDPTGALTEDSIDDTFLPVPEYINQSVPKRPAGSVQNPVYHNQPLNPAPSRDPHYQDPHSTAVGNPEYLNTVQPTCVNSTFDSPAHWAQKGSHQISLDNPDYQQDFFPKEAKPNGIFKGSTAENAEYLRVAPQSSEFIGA
# Text: (§1) The inhibition of EGF-R-mediated signal transmission can be detected, for example, with cells which express human EGF-R, the survival and proliferation of which depend on stimulation by EGF or TGF-alpha. An interleukin-3 (IL-3)-dependent cell line of murine origin which was changed genetically such that it expresses functional human EGF-R was used here. The proliferation of these cells, called F/L-HERc, can therefore be stimulated either by murine IL-3 or by EGF (see von Ruden, T. et al. in EMBO J. 7, 2749-2756 (1988) and Pierce, J. H. et al. in Science 239, 628-631 (1988)).
# (§2) The starting material used for the F/L-HERc cells was the cell line FDC-P1, the preparation of which has been described by Dexter, T. M. et al. in J. Exp. Med. 152, 1036-1047 (1980). Alternatively, however, other growth factor-dependent cells can also be used (see, for example, Pierce, J. H. et al. in Science 239, 628-631 (1988), Shibuya, H. et al. in Cell 70, 57-67 (1992) and Alexander, W. S. et al. in EMBO J. 10, 3683-3691 (1991)). Recombinant retroviruses were used for expression of the human EGF-R cDNA (see Ullrich, A. et al. in Nature 309, 418-425 (1984)), as described in yon Ruden, T. et al., EMBO J. 7, 2749-2756 (1988), with the difference that the retroviral vector LXSN (see Miller, A. D. et al. in BioTechniques 7, 980-990 (1989)) was used for expression of the EGF-R cDNA and the line GP+E86 (see Markowitz, D. et al. in J. Virol. 62, 1120-1124 (1988)) was used as the packing cell.
# (§3) The test was carried out as follows:
# (§4) F/L HERc cells were cultured at 37° C. and 5% CO2 in RPMI/1640 medium (BioWhittaker), supplemented with 10% foetal bovine serum (FCS, Boehringer Mannheim), 2 mM glutamine (BioWhittaker), standard antibiotics and 20 ng/ml of human EGF (Promega). For investigation of the inhibitory activity of the compounds according to the invention, 1.5×10^4 cells per well were cultured in triplicate in 96-well plates in the above medium (200 μl), proliferation of the cells being stimulated with either EGF (20 ng/ml) or murine IL-3. Culture stocks of the cell line X63/0 mIL-3 were used as the source for IL-3 (see Karasuyama, H. et al. in Eur. J. Immunol. 18, 97-104 (1988)). The compounds according to the invention were dissolved in 100% dimethyl sulphoxide (DMSO) and added to the cultures in various dilutions, the maximum DMSO concentration being 1%. The cultures were incubated at 37° C. for 48 hours.
# (§5) To determine the inhibitory activity of the compounds according to the invention, the relative cell count was measured in OD units with Cell Titer 96™ Aqueous Non-Radioactive Cell Proliferation Assay (Promega). The relative cell count was calculated in per cent of the control (F/LHERc cells without inhibitor) and the active compound concentration which inhibits the proliferation of the cells to 50% (IC50) was deduced.
# F/L-HERc cells = experiment: Inhibition of IL-3-dependent proliferation of F/L-HERc cells; conditions: Mus musculus, murine IL-3, 48 hours
# Text: as §1, §2, §3, §4, §5
pIC50 [1],pIC50 (human EGF-R),SMILES,pIC50 (F/L-HERc cells)
6.00 to 7.00,7.30,"Cc1cccc(Nc2ncnc3cnc(N4CCOCC4)nc23)c1 [1(19), 4-[(3-Methylphenyl)amino]-6-(morpholino)-pyrimido[5,4-d]pyrimidine]",< 5.00
6.00 to 7.00,,"Cc1cccc(Nc2ncnc3cnc(N4CCCC4)nc23)c1 [Example 1(18), 4-[(3-Methylphenyl)amino]-6-(1-pyrrolidinyl)-pyrimido[5,4-d]pyrimidine]",
6.00 to 7.00,,"Clc1cccc(Nc2ncnc3cnc(NC4CC4)nc23)c1 [Example 1(83), 4-[(3-Chlorophenyl)amino]-6-(cyclopropylamino)-pyrimido[5,4-d]pyrimidine]",
6.00 to 7.00,7.40,"Cc1cccc(Nc2ncnc3cnc(NC4CC4)nc23)c1 [1(17), 4-[(3-Methylphenyl)amino]-6-(cyclopropylamino)-pyrimido[5,4-d]pyrimidine]",< 5.52
6.00 to 7.00,,"Clc1cccc(Nc2ncnc3cnc(N4CCCC4)nc23)c1 [Example 1(93), 4-[(3-Chlorophenyl)amino]-6-(1-pyrrolidinyl)-pyrim-ido[5,4-d]pyrimidine]",
6.00 to 7.00,,"CC(C)Nc1ncc2ncnc(Nc3cccc(Br)c3)c2n1 [Example 1(95), 4-[(3-Bromophenyl)amino]-6-(isopropylamino)-pyrimido[5,4-d]pyrimidine]",
6.00 to 7.00,,"O[C@H]1CC[C@H](Nc2ncc3ncnc(Nc4cccc(Br)c4)c3n2)CC1 [Example 1(104), 4-[(3-Bromophenyl)amino]-6-[(trans-4-hydroxycyclohexyl)-amino]pyrimido[5,4-d]pyrimidine]",
,6.00,"COc1ncc2ncnc(Nc3cccc(C)c3)c2n1 [1(5), 4-[(3-Methylphenyl)amino]-6-methoxy-pyrimido[5,4-d]pyrimidine]",< 5.00
6.00 to 7.00,,"Cc1cccc(Nc2ncnc3cnc(NC(C)C)nc23)c1 [Example 1(2), 4-[(3-Methylphenyl)amino]-6-(isopropylamino)-pyrimido[5,4-d]pyrimidine]",
,7.40,"Cc1cccc(Nc2ncnc3cnc(NC4CCN(C)CC4)nc23)c1 [1(62), 4-[(3-Methylphenyl)amino]-6-[(1-methyl-4-piperidinyl)amino]-pyrimido[5,4-d]pyrimidine]",< 6.00
,8.40,"Cc1cccc(Nc2ncnc3cnc(Nc4ccc(N5CCCC5CO)cc4)nc23)c1 (stereo not drawn) [1(193), 4-[(3-Methylphenyl)amino]-6-[4-(2-hydroxymethyl-1-pyrrolidinyl)phenylamino]-pyrimido[5,4-d]pyrimidine]",5.00
,6.52,"Cc1cccc(Nc2ncnc3cnc(N)nc23)c1 [1(13), 4-[(3-Methylphenyl)amino]-6-amino-pyrimido[5,4-d]pyrimidine]",< 5.00
6.00 to 7.00,8.30,"Cc1cccc(Nc2ncnc3cnc(NC(C)(C)C)nc23)c1 [1(6), 4-[(3-Methylphenyl)amino]-6-(tert-butylamino)-pyrimido[5,4-d]pyrimidine]",< 5.00
,7.30,"Cc1cccc(Nc2ncnc3cnc(N[C@H]4CC[C@H](NC(=O)OC(C)(C)C)CC4)nc23)c1 [1(108), 4-[(3-Methylphenyl)amino]-6-[(trans-4-tert-butyloxycarbonylamino-cyclohexyl)amino]pyrimido[5,4-d]pyrimidine]",< 5.00
,5.70,"Brc1cccc(Nc2ncnc3cncnc23)c1 [4(1), 4-[(3-Bromophenyl)amino]-pyrimido[5,4-d]pyrimidine]",< 5.00
6.00 to 7.00,8.52,"Cc1cccc(Nc2ncnc3cnc(N[C@H]4CC[C@H](O)CC4)nc23)c1 [1(72), 4-[(3-Methylphenyl)amino]-6-[(trans-4-hydroxycyclohexyl)amino]-pyrimido[5,4-d]pyrimidine]",< 5.52
,8.30,"Cc1cccc(Nc2ncnc3cnc(N[C@H]4CC[C@H](C(=O)N5CCOCC5)CC4)nc23)c1 [1(140), 4-[(3-Methylphenyl)amino]-6-[trans-4-(morpholinocarbonyl)cyclohexylamino]-pyrimido[5,4-d]pyrimidine]",< 5.00
,7.82,"Cc1cccc(Nc2ncnc3cnc(NC4CCOCC4)nc23)c1 [1(170), 4-[(3-Methylphenyl)amino]-6-(4-tetrahydropyranylamino)-pyrimido[5,4-d]pyrimidine]",< 5.00
,7.82,"N#Cc1cccc(Nc2ncnc3cnc(NC4CC4)nc23)c1 [3(19), 4-[(3-Cyanophenyl)amino]-6-(cyclopropylamino)-pyrimido[5,4-d]pyrimidine]",< 5.52
,7.89,"Cc1cccc(Nc2ncnc3cnc(N[C@H]4CC[C@H](C(=O)O)CC4)nc23)c1 [1(134), 4-[(3-Methylphenyl)amino]-6-[trans-4-carboxy-cyclohexylamino]-pyrimido[5,4-d]pyrimidine]",< 5.00
6.00 to 7.00,,"CC(C)Nc1ncc2ncnc(Nc3cccc(Cl)c3)c2n1 [Example 1(96), 4-[(3-Chlorophenyl)amino]-6-(isopropylamino)-pyrim-ido[5,4-d]pyrimidine]",
